Experimental data as given in patent US20250099431A1, “GLP-1R MODULATING COMPOUNDS” (priority 2020, published 2025).

What was measured:
[1] = Microsomal stability (liver microsomal assay, mixed cofactors); predicted hepatic clearance; type: in vitro ADME; conditions: liver microsomes 1.0 mg protein/mL (+UDPGA +NADPH), 1 μM analyte, 37° C.; scaled with human liver weight and hepatic blood flow 1.3 L/hr/kg
Protocol: Metabolic stability of compounds was assessed using human or rat liver microsomal assays (Corning). In these assays, 10 nL of each analyte at a concentration of 1 mM in 100% DMSO was dispensed into a well of a polypropylene plates using the Echo 550 acoustic liquid dispenser (Labcyte®). Each plate contained 384 wells with a single analyte in each well.
A solution of human (Corning® Gentest™ Human Mixed Pooled Microsomes or rat (Corning® Gentest™ Rat [Sprague-Dawley] Pooled Liver Microsomes) liver microsomes at 2 mg/ml in 100 mM K2HPO4/KH2PO4 at pH 7. 4 was combined with alamethicin from Trichoderma viride (Sigma-Aldrich) 0.0225 mg/ml. The mixture was incubated on ice for 15 minutes. 5 μL of this mixture was added to individual wells following a 15 minute incubation at room temperature and supplemented with 5 μL NADPH Regenerating Solution of cofactors (Corning® Gentest™ UGT Reaction Mix) containing 100 mM K2HPO4/KH2PO4 at pH 7.4, 2.6 mM NADP+, 6.6 mM glucose-6-phosphate, 6.6 mM MgCl2, 0.8 U/mL glucose-6-phosphate dehydrogenase, 0.1 mM sodium citrate, and 6.8 mM uridine diphosphate-glucuronic acid. The final concentration of each analyte compound at the beginning of the reaction was 1 μM. The reactions were incubated at 37° C. and samples were collected at time points of 0, 5, 15, 30, 40, 50, 60, and 70 minutes for further analysis. Background data were collected using reactions without analyte compounds.
Upon collection of the sample time points, samples were quenched with 30 μL of a solution of 72% acetonitrile, 8% methanol, 0.1% formic acid, 19.9% water, and internal standard (IS). Reaction plates were spun in a centrifuge at speed of 4,000 rcf for 30 minutes at 4° C., following a dilution of the 10 μL quenched reaction into 40 μL de-ionized water, yielding assay plates.
Assay plates were analyzed using solid-state extraction coupled with quadrupole time-of-flight mass spectrometer, using Agilent QToF 6530 RapidFire 360 system, with C4 type A solid state cartridges. Analysis was performed in either positive or negative ionization modes. Mobile phases contained 0.1% formic acid in water for loading analytes onto solid state extraction cartridges and 0.1% formic acid in acetonitrile for elution into a mass spectrometer in positive ionization mode, or 0.1% acetic acid in water for loading and 0.1% acetic acid in acetonitrile for extraction in negative ionization mode. Peak-area ratios of integrated counts for individual compounds to IS were plotted as semi-logarithmic chart of log vs time. The initial linear portion of decay was fitted to a linear regression equation to derive the half-time of analyte decay.
Pharmacological parameters for an analyte compound metabolism were calculated using the following equations: […]
wherein concentration refers to the protein concentration (mg/ml) in the reaction.
This scales the in vitro intrinsic clearance up to the value that would be predicted for the entire mass of liver tissue (but with no restriction by blood flow). The value depends upon the size of the liver (species-dependent) and the yield of microsomal protein as appropriate (assumed to be species-independent).
Hepatic clearance will depend upon the inter-relationship of intrinsic clearance and hepatic blood flow and was predicted from in vitro data using a variety of approaches.
The hepatic extraction is reported as the predicted clearance expressed as a proportion of hepatic blood flow.

GLP-1R = GLP-1R (Homo sapiens (Human), UniProt P43220); test: GLP-1R activation: cAMP increase in CHO cells stably expressing GLP-1R; type: cell-based; conditions: cAMP increase, 10 point dose response, 30 minutes incubation at 37° C., read-out: EC50
Protocol: GLP-1R activation by a compound of the present disclosure was quantified by measuring cAMP increase in CHO cells stably expressing GLP-1R (MultiSpan product #C1267-1a). […] The cells were then incubated overnight at 37° C., 5% CO2. […] 1% BSA (Rockland Immunochemicals product #BSA-1000)). Following the medium change, the cells were incubated for 1 hour at 37° C., 5% CO2. The tested GLP-1 compound was added to the cells in a 10 point dose response followed by a 30 minutes incubation at 37° C., 5% CO2. cAMP concentration increase was then detected using Cisbio's cAMP Gs Dynamic Kit (product #62AM4PEC) according to the manufacturer's protocol. The response was plotted against the log of the agonist concentration and fitted to a sigmoidal equation to determine the EC50.

Chain of GLP-1R (P43220 24-463): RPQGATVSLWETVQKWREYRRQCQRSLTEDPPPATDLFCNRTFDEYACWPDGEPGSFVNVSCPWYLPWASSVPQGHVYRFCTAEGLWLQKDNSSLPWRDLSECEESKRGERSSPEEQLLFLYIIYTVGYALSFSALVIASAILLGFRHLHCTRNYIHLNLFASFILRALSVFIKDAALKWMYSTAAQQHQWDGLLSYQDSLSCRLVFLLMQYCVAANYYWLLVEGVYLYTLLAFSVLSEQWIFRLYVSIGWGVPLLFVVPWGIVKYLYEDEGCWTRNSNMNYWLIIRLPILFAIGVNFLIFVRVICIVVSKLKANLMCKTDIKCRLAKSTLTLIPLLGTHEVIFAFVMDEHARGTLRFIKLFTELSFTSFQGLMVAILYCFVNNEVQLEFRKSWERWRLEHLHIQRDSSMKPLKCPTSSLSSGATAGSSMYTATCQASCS

Structure (SMILES)	Predicted Hepatic Clearance (Pred. Cl.) [1] [mL/min/kg]	EC50 (GLP-1R) [nM]
COCCn1c(Cc2c(F)cc(-c3cccc4c3OC3(CCCc5cc(Cl)ccc53)O4)cc2F)nc2ccc(C(=O)O)cc21 (stereo not drawn) [Example 56, 2-(4-(6′-chloro-3′,4′-dihydro-2′H-spiro[benzo[d][1,3]dioxole-2,1′-naphthalen]-4-yl)-2,6-difluorobenzyl)-1-(2-methoxyethyl)-1H-benzo[d]imidazole-6-carboxylic acid]	5.83	3750
CC1(c2ccc(C#N)cc2F)Oc2cccc(-c3cc(F)c(Cc4nc5ccc(C(=O)O)cc5n4C[C@@H]4CCO4)c(F)c3)c2O1 (stereo partly drawn) [Example 91, 2-(4-(2-(4-cyano-2-fluorophenyl)-2-methylbenzo[d][1, 3]dioxol-4-yl)-2,6-difluorobenzyl)-1-(((S)-oxetan-2-yl)methyl)-1H-benzo[d]imidazole-6-carboxylic acid]	3.83	0.69
CC1(c2ccc(Cl)cc2F)Oc2cccc(-c3cc(F)c(Cc4nc5ccc(C(=O)O)cc5n4C[C@@H]4CCO4)cc3F)c2O1 (single isomer, unassigned) [Example 44]	4.83	0.033
COCCn1c(Cc2cc(F)c(-c3cccc4c3OC(C)(c3ccc(Cl)cn3)O4)cc2F)nc2ccc(C(=O)O)cc21 (stereo not drawn) [Example 114, 2-[[4-[2-(5-chloro-2-pyridyl)-2-methyl-1,3-benzodioxol-4-yl]-2,5-difluoro-phenyl]methyl]-3-(2-methoxyethyl) benzimidazole-5-carboxylic acid]	7.67	
CC1(c2ccc(Cl)cn2)Oc2cccc(-c3cc(F)c(Cc4nc5ccc(C(=O)O)cc5n4C[C@@H]4CCO4)c(F)c3)c2O1 (single isomer, unassigned) [Example 50]	3.17	16
CC1(c2ccc(Cl)cc2F)Oc2cccc(-c3cc(F)c(Cc4nc5ccc(C(=O)O)cc5n4CCS(C)(=O)=O)c(F)c3)c2O1 (stereo not drawn) [Example 82, 2-[[4-[2-(4-chloro-2-fluoro-phenyl)-2-methyl-1,3-benzodioxol-4-yl]-2,6-difluoro-phenyl]methyl]-3-(2-methylsulfonylethyl) benzimidazole-5-carboxylic acid]		20
COCCn1c(Cc2csc(-c3cccc4c3OC(C)(c3ccc(Cl)cc3F)O4)c2)nc2ccc(C(=O)O)cc21 (stereo not drawn) [Example 61, 2-((5-(2-(4-chloro-2-fluorophenyl)-2-methylbenzo[d][1, 3]dioxol-4-yl)thiophen-3-yl)methyl)-1-(2-methoxyethyl)-1H-benzo[d]imidazole-6-carboxylic acid]	13	639
CC1(c2ccc(Cl)cn2)Oc2ccc(F)c(-c3ccc(Cc4nc5ccc(C(=O)O)cc5n4C[C@@H]4CCO4)c(F)c3)c2O1 (stereo partly drawn) [Example 76, 2-(4-(2-(5-chloropyridin-2-yl)-5-fluoro-2-methylbenzo[d][1, 3]dioxol-4-yl)-2-fluorobenzyl)-1-(((S)-oxetan-2-yl)methyl)-1H-benzo[d]imidazole-6-carboxylic acid]	8	4.3
CC1(c2ccc(Cl)cc2F)Oc2cccc(-c3cc(F)c(Cc4nc5ccc(C(=O)O)cc5n4C[C@@H]4CCO4)cc3F)c2O1 (stereo partly drawn) [Example 28, 2-(4-(2-(4-chloro-2-fluorophenyl)-2-methylbenzo[d][1, 3]dioxol-4-yl)-2,5-difluorobenzyl)-1-(((S)-oxetan-2-yl)methyl)-1H-benzo[d]imidazole-6-carboxylic acid]	3.83	0.034
CC1(c2ccc(Cl)cc2F)Oc2cccc(-c3cc(F)c(Cc4nc5ccc(C(=O)O)nc5n4CC4(CC#N)CC4)cc3F)c2O1 (stereo not drawn) [Example 75, 2-(4-(2-(4-chloro-2-fluorophenyl)-2-methylbenzo[d][1, 3]dioxol-4-yl)-2,5-difluorobenzyl)-3-((1-(cyanomethyl)cyclopropyl)methyl)-3H-imidazo[4,5-b]pyridine-5-carboxylic acid]	4.83	0.7
CC1(c2ccc(Cl)cn2)Oc2cccc(-c3cc(F)c(Cc4nc5ccc(C(=O)O)cc5n4C[C@@H]4CCO4)c(F)c3F)c2O1 (stereo partly drawn) [Example 70, 2-(4-(2-(5-chloropyridin-2-yl)-2-methylbenzo[d][1, 3]dioxol-4-yl)-2,3,6-trifluorobenzyl)-1-(((S)-oxetan-2-yl)methyl)-1H-benzo[d]imidazole-6-carboxylic acid]	3.5	0.78
CC1(c2ccc(Cl)cc2F)Oc2cccc(-c3ccc(Cc4nc5ccc(C(=O)O)cc5n4C[C@@H]4CCO4)c(F)c3)c2O1 (stereo partly drawn) [Example 23, 2-(4-(2-(4-chloro-2-fluorophenyl)-2-methylbenzo[d][1, 3]dioxol-4-yl)-2-fluorobenzyl)-1-(((S)-oxetan-2-yl)methyl)-1H-benzo[d]imidazole-6-carboxylic acid]	2.33	0.49
COCCn1c(Cc2cc(F)c(-c3cccc4c3OC(c3ccc(C#N)cc3F)O4)cc2F)nc2ccc(C(=O)O)cc21 (single isomer, unassigned) [Example 39, 2-(4-(2-(4-cyano-2-fluorophenyl)benzo [d][1,3]dioxol-4-yl)-2,5-difluorobenzyl)-1-(2-methoxyethyl)-1H-benzo[d]imidazole-6-carboxylic acid]	3.17	49
COCCn1c(Cc2cc(F)c(-c3cccc4c3OC(C)(c3ccc(Cl)cc3F)O4)cc2F)nc2ccc(C(=O)O)cc21 (stereo not drawn) [Example 113, 2-[[4-[2-(4-chloro-2-fluoro-phenyl)-2-methyl-1,3-benzodioxol-4-yl]-2,5-difluoro-phenyl]methyl]-3-(2-methoxyethyl) benzimidazole-5-carboxylic acid]	5.83	
CC1(c2ccc(Cl)cc2F)Oc2cccc(-c3ccc(Cc4nc5ccc(C(=O)O)cc5n4CC4(n5ccnn5)CC4)c(F)c3)c2O1 (stereo not drawn) [Example 51, 1-((1-(1H-1,2,3-triazol-1-yl)cyclopropyl)methyl)-2-(4-(2-(4-chloro-2-fluorophenyl)-2-methylbenzo[d][1, 3]dioxol-4-yl)-2-fluorobenzyl)-1H-benzo[d]imidazole-6-carboxylic acid]	2.5	
COCCn1c(Cc2cc(-c3cccc4c3OC(C)(c3ccc(Cl)cc3F)O4)cs2)nc2ccc(C(=O)O)cc21 (stereo not drawn) [Example 59, 2-((4-(2-(4-chloro-2-fluorophenyl)-2-methylbenzo[d][1, 3]dioxol-4-yl)thiophen-2-yl)methyl)-1-(2-methoxyethyl)-1H-benzo[d]imidazole-6-carboxylic acid]		1620
